Key:
Test in all cases: relative viability (nuclei count vs DMSO), 5 days (fraction); higher = more cells survive
[1] = compound: O=C(O)c1ccc2c(c1)nc(Nc1cccc(Cl)c1)c1ccncc12 [Silmitasertib] + CC(=O)Nc1cccc(-n2c(=O)n(C3CC3)c(=O)c3c(Nc4ccc(I)cc4F)n(C)c(=O)c(C)c32)c1 [Trametinib] (partner 0.02 µM)
Method in brief: (§1)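 The day after seeding in 1536-well plates, lung cancer cell lines were treated by pin tool with a single drug, or with a fixed anchor-drug dose together with five library-drug doses (not always all listed) in √10 steps. After 5 days, a combined fix-and-stain solution (final 0.05% Triton X-100, 1% formaldehyde, 1 ug/ml Hoechst) was added. Nuclei counted on 4× images gave relative viability as treated counts over vehicle counts, reported as the median of duplicate plates.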

Silmitasertib + AZD7762 = compound: O=C(O)c1ccc2c(c1)nc(Nc1cccc(Cl)c1)c1ccncc12 [Silmitasertib] + NC(=O)Nc1cc(-c2cccc(F)c2)sc1C(=O)N[C@H]1CCCNC1 [AZD7762] (partner 0.2 µM)
Method in brief: as §1

Silmitasertib + Olaparib = compound: O=C(O)c1ccc2c(c1)nc(Nc1cccc(Cl)c1)c1ccncc12 [Silmitasertib] + O=C(c1cc(Cc2n[nH]c(=O)c3ccccc23)ccc1F)N1CCN(C(=O)C2CC2)CC1 [Olaparib] (partner 8 µM)
Method in brief: as §1

[2] = compound: O=C(O)c1ccc2c(c1)nc(Nc1cccc(Cl)c1)c1ccncc12 [Silmitasertib] + CS(=O)(=O)N1CCN(Cc2cc3nc(-c4cccc5[nH]ncc45)nc(N4CCOCC4)c3s2)CC1 [Pictilisib] (partner 1 µM)
Method in brief: as §1

[3] = compound: O=C(O)c1ccc2c(c1)nc(Nc1cccc(Cl)c1)c1ccncc12 [Silmitasertib] + C[C@@H](Oc1cc(-c2cnn(C3CCNCC3)c2)cnc1N)c1c(Cl)ccc(F)c1Cl [Crizotinib] (partner 1 µM)
Method in brief: as §1

| Cell Line | relative viability ([1]; first compound 0.04 µM) | relative viability ([1]; first compound 1.265 µM) | relative viability ([1]; first compound 4 µM) | relative viability (Silmitasertib + AZD7762; first compound 0.04 µM) | relative viability (Silmitasertib + AZD7762; first compound 1.265 µM) | relative viability (Silmitasertib + AZD7762; first compound 4 µM) | relative viability (Silmitasertib + Olaparib; first compound 0.04 µM) | relative viability (Silmitasertib + Olaparib; first compound 1.265 µM) | relative viability (Silmitasertib + Olaparib; first compound 4 µM) | relative viability ([1]; first compound 0.4 µM) | relative viability ([2]; first compound 0.04 µM) | relative viability ([2]; first compound 0.4 µM) | relative viability ([2]; first compound 1.265 µM) | relative viability ([2]; first compound 4 µM) | relative viability ([3]; first compound 0.04 µM) | relative viability ([3]; first compound 0.4 µM) | relative viability ([3]; first compound 1.265 µM) | relative viability ([3]; first compound 4 µM) | relative viability (Silmitasertib + Olaparib; first compound 0.4 µM) | relative viability (Silmitasertib + AZD7762; first compound 0.4 µM) |
| --- | --- | --- | --- | --- | --- | --- | --- | --- | --- | --- | --- | --- | --- | --- | --- | --- | --- | --- | --- | --- |
| NCI-H2342 | 0.909 | 0.781 | 0.811 | 0.471 | 0.387 | 0.401 | 0.422 | 0.434 | 0.426 | – | – | – | – | – | – | – | – | – | – | – |
| SK-MES-1 | 0.589 | 0.535 | 0.469 | – | – | – | 0.777 | 0.289 | 0.207 | 0.477 | 0.412 | 0.439 | 0.456 | 0.373 | 1.1 | 1.05 | 1.06 | 0.656 | 0.623 | – |
| LCLC-97TM1 | 0.217 | 0.156 | 0.145 | 0.418 | 0.191 | 0.128 | 0.382 | 0.213 | 0.234 | – | 0.19 | – | 0.15 | 0.112 | 0.593 | – | 0.339 | 0.141 | – | – |
| NCI-H2170 | 0.918 | 0.833 | 0.821 | 0.89 | 0.836 | 0.968 | 0.56 | 0.529 | 0.574 | 0.661 | 0.32 | 0.259 | 0.31 | 0.269 | 1.22 | 0.958 | 0.863 | 1.15 | 0.299 | 0.554 |
| ABC-1 | – | – | – | 0.948 | 0.8 | 0.567 | 0.814 | 0.777 | 0.738 | – | 1.12 | 0.561 | 0.303 | 0.345 | 1.27 | 1 | 0.516 | 0.445 | 0.863 | 0.824 |
| COR-L 105 | 0.491 | 0.401 | 0.478 | – | – | – | 0.716 | 0.689 | 0.5 | 0.434 | 0.463 | 0.377 | 0.46 | 0.419 | 0.881 | 0.679 | 0.702 | 0.501 | 0.614 | – |
| NCI-H2009 | 0.342 | 0.254 | 0.239 | – | – | – | 0.747 | 0.756 | 0.595 | 0.271 | 1.07 | 0.701 | 0.427 | 0.244 | 1.09 | 1.04 | 1.1 | 0.97 | 0.638 | – |
| NCI-H1703 | – | – | – | 0.136 | 0.153 | 0.146 | 0.513 | 0.541 | 0.573 | – | 0.25 | 0.291 | 0.228 | 0.252 | 0.954 | 0.596 | 0.787 | 0.392 | 0.368 | – |
| NCI-H2023 | 0.728 | 0.373 | 0.535 | – | – | – | 0.532 | 0.46 | 0.468 | 0.569 | 0.275 | 0.275 | 0.194 | 0.179 | 0.663 | 0.585 | 0.513 | 0.542 | 0.363 | – |
| NCI-H1650 | 0.769 | 0.428 | 0.256 | – | – | – | 0.833 | 0.646 | 0.493 | 0.56 | 0.781 | 0.459 | 0.348 | 0.211 | 1.04 | 1 | 1 | 0.68 | 0.798 | – |
| NCI-H1395 | 1.07 | 1.03 | 1.14 | 0.425 | 0.421 | 0.41 | 0.463 | 0.459 | 0.469 | 0.809 | 0.623 | 0.492 | 0.587 | 0.427 | – | – | – | – | 0.461 | 0.42 |
| NCI-H1793 | 0.503 | 0.371 | 0.488 | 0.725 | 0.654 | 0.515 | 0.924 | 0.769 | 0.625 | 0.425 | 0.374 | 0.247 | 0.274 | 0.31 | – | – | – | – | 0.715 | 0.457 |
| NCI-H522 | 0.715 | 0.814 | 0.817 | 0.89 | 0.822 | 0.819 | 0.633 | 0.774 | 0.592 | 0.68 | – | – | – | – | – | – | – | – | 0.58 | 0.841 |
| NCI-H520 | 0.832 | 0.524 | 0.626 | – | – | – | 0.365 | 0.295 | 0.262 | 0.668 | 0.263 | 0.298 | 0.258 | 0.224 | 0.821 | 0.728 | 0.792 | 0.612 | 0.318 | – |
| UMC-11 | 0.73 | 0.353 | 0.403 | – | – | – | 0.335 | 0.301 | 0.26 | 0.65 | 0.992 | 0.903 | 0.652 | 0.436 | 0.604 | 0.683 | 0.56 | 0.324 | 0.298 | – |
| SK-LU-1 | 0.733 | 0.298 | 0.289 | – | – | – | 0.45 | 0.308 | 0.225 | 0.46 | 0.685 | 0.448 | 0.359 | 0.212 | 1.2 | 0.714 | 0.502 | 0.315 | 0.267 | – |
| SW 1573 | 0.529 | 0.478 | 0.439 | – | – | – | 0.552 | 0.428 | 0.427 | 0.54 | 0.561 | 0.459 | 0.462 | 0.484 | 0.952 | 0.707 | 0.734 | 0.625 | 0.457 | – |
| SW 900 | 0.929 | 0.647 | 0.492 | 0.72 | 0.691 | 0.338 | 0.883 | 0.739 | 0.568 | 0.624 | – | – | – | – | – | – | – | – | 0.701 | 0.578 |
| NCI-H2228 | 0.554 | 0.456 | 0.464 | – | – | – | 0.713 | 0.474 | 0.668 | 0.375 | 0.505 | 0.312 | 0.367 | 0.305 | 0.497 | 0.495 | 0.449 | 0.374 | 0.208 | – |
| COR-L23 | 0.737 | 0.497 | 0.456 | – | – | – | 0.393 | 0.325 | 0.283 | 0.369 | 0.945 | 0.586 | 0.636 | 0.248 | 0.665 | 0.67 | 0.727 | 0.629 | 0.31 | – |

— the supplement of paper PMC10307832
